Assay results as given in US20140342065A1 (priority 2012, published 2014).
Read-outs that look alike come from different tables or passages of the source.

Assays:
[1] = system: Strawberry, Blackberry, Raspberry, Banana, Tomato and Avocado; mold and/or bacteria
From the text: Representative samples include but are not limited to (Strawberry, Blackberry, Raspberry, Banana, Tomato and Avocado). Experiments were repeated at least four times and each food category included a minimum of six items in each group. The containers were made of gas impermeable plexi-glass that snugly fitted onto the container rim. Fruits were placed on regular kitchen towels that covered the bottom of the container. Control and experimental group (Exp) of fruits were placed in separate containers. […] When the level dropped below 5 ppm, the H2 gas was substituted. Experiment was carried out at room temperature for the durations shown.

[2] = system: Banana, Tomato and slices of avocado; yeast and/or bacteria
From the text: Representative samples include fruits (Banana), and vegetables (Tomato) and slices of avocado. Experiments were repeated at least four times and each food category included a minimum of six items in each group. The containers were made of gas impermeable Plexiglas that snugly fitted onto the container rim. Fruits were placed on regular kitchen towels that covered the bottom of the containers. Control and experimental group (Exp) of fruits were placed in separate containers. The amount of H2S—H2 gas within the Exp containers varied from 5-15 ppm during the course of exposure. When the level dropped below 5 ppm, the H2 gas was substituted. Experiment was carried out at room temperature for the durations shown. […] Growth of bacteria and yeast was checked by taking samples of food and streaking them over agar. Samples from each fruit were diluted in phosphate buffered saline, pH 7.4. From each sample, 20 microliters was streaked on agar plates and plates were maintained either at room temperature or at 37° C.

[3] = in water; cited from earlier work
[4] = in water; cited from earlier work; remark: listed apart in the source
[5] = system: strawberries; micro-organisms
Procedure: Fruits were treated without or with gas with each gas at 40 ppm. N=12, Differences between control and treated groups (P<0.05-P<0.005).

bacteria and yeast = assay: Agar plates stored with H2S gas 40 ppm (FIG. 11, 104); format: cell-based; conditions: H2S 40 ppm
From the text: Representative samples of foods shown include fruits, and vegetables. […] Control foods were stored in closed containers. The containers were made of aluminum with a plastic lid that snugly fitted onto the container rim. […] The inlet and outlet valves were then closed. Using a H2S gas detector capable of detecting 1 to 500 ppm of H2S, no H2S was detected outside the chamber. […] There is small change in color, consistency, and of the same food group and there is no evidence of growth of yeast in the H2S gas-treated group. Growth of bacteria and yeast was checked by taking samples of food and streaking them over agar. […] Strawberry 80. […] This growth was quite evident on day 5 (arrows, 81). The fruit also lost its consistency and is discolored. […] Banana, 86. Growth of yeast is seen by day 8 in the control group. The fruit also lost its consistency and is discolored. […] A slice of banana 99. […] The fruit also lost its consistency and is discolored. […] Pistachio 101. […] Green bananas 102. Green bananas in each group were used in this experiment. The control bananas ripened, developed a yellow color that still maintained some of their green color on day 8. Tomatoes 103. Green tomatoes in each group were used in this experiment. […] Samples from each fruit were diluted in phosphate buffered saline, pH 7.4. […]

mice = conditions: cited from earlier work
[6] = 0.01-0.1 mol/liter solutions at 18° C.; cited from earlier work
humans = conditions: cited from earlier work

In the case of `[HH]` [Hydrogen], the “food spoilage and growth of mold and/or bacteria” value ([1]; H2 5-45 ppm, closed container, room temperature) is reported as “prevents food spoilage and retards but does not inhibit growth of mold and/or bacteria”, the “day on which growth of mold is evident” value ([1]; Strawberry, Raspberry, Blackberry, control day 3, less severe than control) is reported as 4 days and the “discoloration and yeast growth on avocado slice” value ([1]; day 4) is reported as “only moderate surface discoloration and no evidence of growth of yeast”. For the same compound, the “ripening and surface discoloration of un-ripened bananas” value ([1]; day 4, versus control) was “less ripening and discoloration”, the “ripening of un-ripened tomato” value ([1]; day 4, versus control) was “less ripening” and the food spoilage [2] was “prevents food spoilage”. For the same compound, the “reaction rate constant k, .O^− + H2” value [3] was 8e+07 M⁻¹ s⁻¹ and the “reaction rate constant k, .OH + H2” value [4] was 4.2e+07 M⁻¹ s⁻¹.

With `[He]` [Helium] the food spoilage ([2]; closed environment, room temperature) was “prevents food spoilage”, the growth of micro-organisms [5] was “retarded but did not prevent growth of micro-organisms” and the “effect on ripening and oxidation” value ([5]; relative to Hydrogen) was “greater than Hydrogen”. For the same compound, the “prevention of food spoilage” value ([5]; relative to Hydrogen) was “comparable with Hydrogen”.

For `S` [Hydrogen Sulfide], the “time without growth following initiation of cultures” value (bacteria and yeast) is listed as “up to 2 months”, the “health consequences after the procedure” value (mice; 81 ppm H2S, 6 hours) is listed as “no negative health consequences” and the blood pressure (mice; mice treated with Hydrogen Sulfide (81 ppm)) is listed as “did not significantly decrease”. For the same compound, the side effects (mice; range of 80 ppm) was “no side effects”, the “pKa (giving the hydro-sulfide ion HS^−)” value [6] was 6.9 and the “lethal concentration for 50% of humans (LC50)” value (humans; 5 minute exposure) was 800 ppm. For the same compound, the “concentration at which the olfactory nerve is paralyzed” value (humans; after a few inhalations) was 100-150 ppm, the “concentration causing immediate collapse with loss of breathing” value (humans; even after a single breath) was “over 1000 ppm” and the “borderline concentration for eye irritation” value (humans; in vivo) was 10-20 ppm. For the same compound, the “concentration causing strong stimulation of the central nervous system and rapid breathing, leading to loss of breathing” value (humans; in vivo) was 530-1000 ppm, the “concentration leading to eye damage” value (humans; in vivo) was 50-100 ppm and the “concentration leading to pulmonary edema with the possibility of death” value (humans; in vivo) was 320-530 ppm. The “concentration with an exposure limit of 8 hours per day” value (humans; in vivo) was under 10 ppm, the “recognition threshold, concentration at which 50% of humans can detect the odor” value (humans; in vivo) was 0.0047 ppm and the “threshold level at which the oxidative (detoxifying) enzymes get overwhelmed” value (humans; in vivo) was 300-350 ppm.
